{"source": "patent US12636295B2", "about": "“Compositions and methods for the treatment of obstructive sleep apnoea (OSA)” (Incannex Healthcare Limited, priority 2020, dated 2026)", "key": {"subjects with OSA [1]": {"test_system": "subjects with OSA", "assay": "Published studies on the effect of single agent acetazolamide on AHI, with linear trend line dose-response", "format": "in vivo, human", "conditions": "from linear trend line of published studies", "source_text": "These studies tested a range of doses across a selection of different patient cohorts."}, "[2]": {"conditions": "after ingestion; cited from earlier work"}, "subjects with OSA [3]": {"test_system": "subjects with OSA", "conditions": "cited from earlier work; for Reduction in AHI (%): relative to baseline or placebo"}, "subjects with OSA [4]": {"test_system": "subjects with OSA", "assay": "Published study (Carley et al. 2018) on the effect of single agent dronabinol on AHI, with trend line dose-response", "format": "in vivo, human", "conditions": "from trend line of published data"}}, "note": "Read-outs that look alike come from different tables or passages of the source.", "data": [{"smiles": "CC(=O)Nc1nnc(S(N)(=O)=O)s1", "note": "[Acetazolamide, acetazolamide]", "values": [{"measurement": "Predicted AHI reduction (%), single agent", "setting": "subjects with OSA [1]; acetazolamide 125 mg", "value": 23.4, "unit": "%"}, {"measurement": "Predicted AHI reduction (%), single agent", "setting": "subjects with OSA [1]; acetazolamide 250 mg", "value": 27.1, "unit": "%"}, {"measurement": "Predicted AHI reduction (%), single agent", "setting": "subjects with OSA [1]; acetazolamide 500 mg", "value": 34.5, "unit": "%"}, {"measurement": "Time to mean peak plasma concentrations", "setting": "[2]", "value": "about 2 hours"}, {"measurement": "Acetazolamide AHI", "setting": "subjects with OSA [3]; 250 mg/day, Chin, 1992, baseline/placebo AHI 38.9", "value": 29.6}, {"measurement": "Reduction in AHI (%)", "setting": "subjects with OSA [3]; 250 mg/day, Chin, 1992", "value": 23.9, "unit": "%"}, {"measurement": "Acetazolamide AHI", "setting": "subjects with OSA [3]; 250 mg/day, Tojima, 1988, baseline/placebo AHI 25", "value": 18.1}, {"measurement": "Reduction in AHI (%)", "setting": "subjects with OSA [3]; 250 mg/day, Tojima, 1988", "value": 27.6, "unit": "%"}, {"measurement": "Reduction in AHI (%)", "setting": "subjects with OSA [3]; 351.2 mg/day, Inoue, 1999", "value": 29.5, "unit": "%"}, {"measurement": "Acetazolamide AHI", "setting": "subjects with OSA [3]; 375 mg/day, Inoue, 1987, baseline/placebo AHI 26.9", "value": 17.3}, {"measurement": "Reduction in AHI (%)", "setting": "subjects with OSA [3]; 375 mg/day, Inoue, 1987", "value": 35.7, "unit": "%"}, {"measurement": "Acetazolamide AHI", "setting": "subjects with OSA [3]; 750 mg/day, Eskandari, 2018, baseline/placebo AHI 38", "value": 23}, {"measurement": "Reduction in AHI (%)", "setting": "subjects with OSA [3]; 750 mg/day, Eskandari, 2018", "value": 39.5, "unit": "%"}, {"measurement": "Acetazolamide AHI", "setting": "subjects with OSA [3]; 1000 mg/day, Edwards, 2012, baseline/placebo AHI 49.6", "value": 24}, {"measurement": "Reduction in AHI (%)", "setting": "subjects with OSA [3]; 1000 mg/day, Edwards, 2012", "value": 51.6, "unit": "%"}, {"measurement": "Acetazolamide AHI", "setting": "subjects with OSA [3]; 1000 mg/day, Whyte, 1988, baseline/placebo AHI 50", "value": 26}, {"measurement": "Reduction in AHI (%)", "setting": "subjects with OSA [3]; 1000 mg/day, Whyte, 1988", "value": 48, "unit": "%"}]}, {"smiles": "CCCCCc1cc(O)c2c(c1)OC(C)(C)C1CCC(C)=CC21", "note": "(stereo not drawn) [Dronabinol]", "values": [{"measurement": "Predicted AHI reduction (%), single agent", "setting": "subjects with OSA [4]; dronabinol 2.5 mg/day", "value": 23.4, "unit": "%"}, {"measurement": "Predicted AHI reduction (%), single agent", "setting": "subjects with OSA [4]; dronabinol 5 mg/day", "value": 26.5, "unit": "%"}, {"measurement": "Time to peak effects", "setting": "[2]", "value": "2 to 4", "unit": "h"}, {"measurement": "Time to significant concentrations in plasma/blood", "setting": "[2]", "value": "30 to 60", "unit": "min"}]}]}
